Data from patent US20240252677A1, “ONE-COMPONENT DELIVERY SYSTEM FOR NUCLEIC ACIDS” (The Trustees of the University of Pennsylvania, priority 2021, published 2024).

Assays:
[1] = Dimensions (size, PDI) of DNPs co-assembled from IAJDs and Luc-mRNA by DLS; assay type: physicochemical
Method: Dynamic Light Scattering (DLS) for the DNPs was performed in buffer with a Malvern Instruments particle sizer (Zetasizer Nano S, Malvern Instruments, UK) equipped with 4 mW He—Ne laser 633 nm and avalanche photodiode positioned at […] to the beam and temperature-controlled cuvette holder. Instrument parameters were determined automatically along with measurement times.
Formulation of DNPs Containing mRNA-Luc: IAJDs were dissolved in ethanol with various initial concentrations (5-160 mg/mL). Nucleoside-modified mRNA encoding firefly luciferase (mRNA-Luc) was dissolved in water with various initial concentrations (1-4 mg/mL). 12.5 μL of mRNA solution was placed into a clean RNAs free eppendorf (1.5 mL) and mixed with 463 μL of citrate buffer (10 mM, pH 3.0)/acetate buffer (10 mM). For encapsulation of mRNA into IAJDs, 25 μL of IAJDs of the ethanol stock solution was rapidly injected into mRNA solution in citrate or acetate buffer followed by vortex for 5 seconds.
(§1) Dynamic Light Scattering (DLS) for the sizes and polydispersities of DNPs was performed on a Malvern Instruments particle sizer (Zetasizer Nano S, Malvern Instruments, UK) equipped with 4 mW He—Ne laser 633 nm and avalanche photodiode positioned at 1750 to the beam and temperature-controlled cuvette holder. Instrument parameters were determined automatically along with measurement times. Sample solution (0.4 mL) was placed in a semi-micro cuvette (1.6 mL, polystyrene, 10×10×45 mm, manufactured by Greiner Bio-One) and the measurements were performed at 23° C.
Formulation of DNPs obtained by co-assembly of IAJDs and Luc-mRNA was performed as follows. IAJDs were dissolved in ethanol with an initial concentration of 80 mg/mL. Nucleoside-modified mRNA encoding firefly luciferase (Luc-mRNA) was dissolved in UltraPure DNase/RNase-free distilled water with an initial concentration of 4.0 mg/mL. 12.5 μL of Luc-mRNA solution was placed into a clean RNAs free eppendorf (1.5 mL) and 463 μL acetate buffer (10 mM, pH 4.0) was added. Then, 25 μL of IAJD in the ethanol stock solution was rapidly injected into the Luc-mRNA solution in acetate buffer followed by vortex for 5 seconds.
as §1, with “dimensions (sizes” for “sizes”, “polydispersities)” for “polydispersities”, “175°” for “1750”, “set up” for “determined”, “(c.a. 0.4” for “(0.4”, “mm,” for “mm, manufactured by”
Formulation of DNPs Co-assembled from IAJDs and Luc-mRNA: nucleoside-modified mRNA encoding firefly luciferase (Luc-mRNA) was dissolved in UltraPure DNase/RNase-free distilled water with an initial concentration of 4.0 mg/mL. IAJD molecules were dissolved in ethanol with an initial concentration of 80 mg/mL. 12.5 μL of Luc-mRNA solution was taken and placed into a clean RNAs free eppendorf (1.5 mL). Then 463 μL of acetate buffer (10 mM, pH 4.0) was added. Afterwards, 25 μL of IAJD in the ethanol stock solution was taken and rapidly injected into the above Luc-mRNA solution in acetate buffer followed by vortex for 5 seconds.

[2] = pKa measurements of individual IAJD molecules by titration; assay type: physicochemical; conditions: ethanol saturated with NaCl, titrated with 0.1 M aqueous HCl; Table 15; individual IAJD molecule, titration
Method: pKa measurements of individual IAJD Molecules was performed as follows. IAJD Molecules were first dissolved in ethanol (Sat. with NaCl) at a concentration of 1.5 mg/mL and the solution volume was 3 mL.
Then 0.1 M HCl solution was added to the above ethanol solution with an increment of 7.5 μL. The resulting pH after each addition of HCl solution was measured by an Thermo Scientific Orion Star A121 meter with Thermo Scientific Orion 8220BNWP pH probe. pKa was determined using the half equivalence point titration.

[3] = test system: liver; test: In vivo mRNA delivery, IVIS imaging of organs: liver; set-up: species or system mice; key to Organs with luminescence: liver: strong: Strong meant the luminescence intensity in that organ was relatively high, compared to other organs; weak: Weak meant the luminescence intensity in that organ was relatively low, compared to other organs; conditions: for Organs with luminescence: liver (weak/strong): Table 14, imaging 5 h after injection
Method: (§2) The exposure time was 1 min.
(§3) Tissue luminescence signal was measured on the IVIS imaging system using an exposure time of 60 seconds using medium binning (binning=8) to ensure that the signal obtained was within operative detection range. […] Bioluminescence imaging was performed as described above.
(§4) Tissue luminescence signal was measured on the IVIS imaging system using a certain exposure time (60, 30 or 15 seconds) and medium binning (binning=8) to ensure that the signal obtained was within operative detection range.

[4] = test system: lung; test: In vivo mRNA delivery, IVIS imaging of organs: lung; set-up: species or system mice; key to Organs with luminescence: lung: strong: Strong meant the luminescence intensity in that organ was relatively high, compared to other organs; weak: Weak meant the luminescence intensity in that organ was relatively low, compared to other organs; conditions: for Organs with luminescence: lung (weak/strong): Table 14
Method: as §2, §3, §4

[5] = Stability of DNPs by DLS after storage at 5° C.; assay type: physicochemical; conditions: storage time 2 days; CIAJD 4.0 mg/mL; CLuc-mRNA 0.1 mg/mL; acetate buffer pH 4.0
Method: The stability of the DNPs as assayed by DLS. All the samples are prepared in acetate buffer. The stabilities of the constructs were ranked: Excellent (in bold)—the original sizes and distribution remains almost the same after storage; Good—the original relatively big sizes became smaller or broad size distribution became narrower; Not stable—the original relatively big sizes or broad size distribution remained almost the similar level, or the original relatively small sizes became bigger or narrow size distribution became broader.

[6] = Acetate buffer 10 mM pH 4.0, CIAJD 4 mg/mL, CLuc-mRNA 0.05 mg/mL
[7] = Acetate buffer 10 mM pH 5.2, CIAJD 4 mg/mL, CLuc-mRNA 0.10 mg/mL
[8] = Citrate buffer 10 mM pH 3.0, CIAJD 4 mg/mL, CLuc-mRNA 0.05 mg/mL
[9] = DNP for in vivo, CIAJD 4.0 mg/mL, CLuc-mRNA 0.1 mg/mL, acetate buffer pH 5.2
[10] = Table 12, DNPs, IAJD 4 mg/mL + Luc-mRNA 0.10 mg/mL, acetate buffer 10 mM pH 4.0
[11] = Table 13, DNPs, IAJD 4 mg/mL + Luc-mRNA 0.10 mg/mL, acetate buffer pH 4.0
[12] = Table 14, DNPs, IAJD 4 mg/mL + Luc-mRNA 0.10 mg/mL, acetate buffer pH 4.0
[13] = Table 17, DNPs used in vivo, IAJD 4 mg/mL, Luc-mRNA 0.10 mg/mL, acetate pH 4.0
[14] = Table 17, mice, IVIS, 4-6 h after injection, intensity relative to other organs
[15] = Acetate buffer 10 mM pH 4.0, CIAJD 4 mg/mL, CLuc-mRNA 0.10 mg/mL
[16] = DNP for in vivo, CIAJD 4.0 mg/mL, CLuc-mRNA 0.1 mg/mL, acetate buffer pH 4.0

PDI [1, 10] | Size (d, nm) [1, 10] | PDI [1, 11] | Size (d, nm) [1, 11] | PDI [1, 12] | Size (d, nm) [1, 12] | pKa [2] | Compound | Organs with luminescence: liver (weak/strong) [3] | Organs with luminescence: lung (weak/strong) ([4]; imaging 5 h after injection) | also measured
– | – | – | – | – | – | – | 3,5-Bis(dodecyloxy)benzyl 3-(4-methylpiperazin-1-yl)propanoate [IAJD 84] | – | – | PDI [1, 6]: 0.493; Size (d, nm) [1, 6]: 106 nm; PDI [1, 7]: 0.311; Size (d, nm) [1, 7]: 199 nm; PDI [1, 8]: 0.283; Size (d, nm) [1, 8]: 192 nm; PDI [1, 9]: 0.311; Size (d, nm) [1, 9]: 199 nm
0.249 | 241 nm | 0.249 | 241 nm | 0.249 | 241 nm | 7.4 | CCCCCCCCCCCCOc1cc(COC(=O)CCCN2CCCCC2)cc(OCCCCCCCCCCCC)c1 [IAJD 65, 3,5-Bis(dodecyloxy)benzyl 4-(piperidin-1-yl)butanoate] | – | – | –
0.451 | 237 nm | 0.451 | 237 nm | 0.451 | 237 nm | 6.38 | CCCCCCCCCCCCOc1cc(COC(=O)CCCN2CCN(CCO)CC2)cc(OCCCCCCCCCCCC)c1 [IAJD 71, 3,5-Bis(dodecyloxy)benzyl 4-(4-(2-hydroxyethyl)piperazin-1-yl)butanoate] | liver (weak), | Lung (weak), | PDI [1, 13]: 0.451; Size (d, nm) [1, 13]: 237 nm; Organs with luminescence: liver [3, 14]: liver (weak),; Organs with luminescence: lung [4, 14]: Lung (weak),
0.317 | 180 nm | 0.317 | 180 nm | 0.317 | 180 nm | 6.32 | CCCCCCCCCCCCCCOc1cc(COC(=O)CCCN2CCN(C)CC2)cc(OCCCCCCCCCCCCCC)c1 [IAJD 74, 3,5-Bis(tetradecyloxy)benzyl 4-(4-methylpiperazin-1-yl)butanoate] | liver (weak), | Lung (weak), | –
0.328 | 235 nm | 0.328 | 235 nm | 0.328 | 235 nm | 6.22 | CCCCCCCCCCCCCCCCOc1cc(COC(=O)CCCN2CCN(C)CC2)cc(OCCCCCCCCCCCCCCCC)c1 [IAJD 75, 3,5-Bis(hexadecyloxy)benzyl 4-(4-methylpiperazin-1-yl)butanoate] | liver (weak), | Lung (weak), | –
0.287 | 78 nm | 0.287 | 78 nm | 0.287 | 78 nm | 6.28 | CCCCC(CC)COc1cc(COC(=O)CCCN2CCN(C)CC2)cc(OCC(CC)CCCC)c1 (centres unmarked) [IAJD 76, 3,5-Bis((2-ethylhexyl)oxy)benzyl 4-(4-methylpiperazin-1-yl)butanoate] | liver (weak), | Lung (weak), | –
1.000 | 629 nm | 1.000 | 629 nm | 1.000 | 629 nm | 6.46 | CCCCCCCCCCCCOc1ccc(COC(=O)CCCN2CCN(C)CC2)cc1OCCCCCCCCCCCC [IAJD 78, 3,4-Bis(dodecyloxy)benzyl 4-(4-methylpiperazin-1-yl)butanoate] | – | Lung (strong), | –
0.144 | 162 nm | 0.144 | 162 nm | 0.144 | 162 nm | 6.18 | CCCCCCCCCCCCOCC(COCCCCCCCCCCCC)(COCCCCCCCCCCCC)COC(=O)CCCN1CCN(C)CC1 [IAJD 82, 3-(Dodecyloxy)-2,2-bis((dodecyloxy)methyl)propyl 4-(4-methylpiperazin-1-yl)butanoate] | – | – | –
0.275 | 88 nm | 0.275 | 88 nm | 0.275 | 88 nm | 6.23 | CCCCC(CC)COc1ccc(COC(=O)CCCN2CCN(C)CC2)cc1OCC(CC)CCCC (centres unmarked) [IAJD 103, 3,4-Bis((2-ethylhexyl)oxy)benzyl 4-(4-methylpiperazin-1-yl)butanoate] | – | – | Organs with luminescence: lung (weak/strong) ([4]; imaging 6 h after injection): Lung (strong),
0.334 | 214 nm | 0.334 | 214 nm | 0.334 | 214 nm | 6.59 | CCCCCCCCCCCCCCOc1cc(CNC(=O)CCCN2CCN(C)CC2)cc(OCCCCCCCCCCCCCC)c1 [IAJD 108, N-(3,5-bis(tetradecyloxy)benzyl)-4-(4-methylpiperazin-1-yl)butanamide] | – | – | Organs with luminescence: lung (weak/strong) ([4]; imaging 6 h after injection): Lung (strong),
– | – | – | – | – | – | – | Diheptyl 5,5′-((5-(((4-(4-methylpiperazin-1-yl)butanoyl)oxy)methyl)-1,3-phenylene)bis(oxy)) dipentanoate [IAJD 85] | – | – | PDI [1, 6]: 0.352; Size (d, nm) [1, 6]: 99 nm; PDI [1, 15]: 0.254; Size (d, nm) [1, 15]: 115 nm; PDI [1, 8]: 0.361; PDI [1, 16]: 0.254; Size (d, nm) [1, 16]: 115 nm; PDI after storage [5]: 0.271; Size (d, nm) after storage [5]: 114 nm
